Patent US10093706B2, “Dominant positive hnRNP-E1 polypeptide compositions and methods” (Indiana University Research and Technology Corporation, priority 2017, dated 2018)
Values joined by “and” are separate entries in the source; they are usually repeats but may differ in a detail not shown here. Equal values may be shown once.

Key:
[1] = tested on: newly synthesized [^35S]hnRNP-E1 in placental 1584-HF cells; experiment: Biosynthetic rate of hnRNP-E1 after protein transfection into placental 1584-HF cells; format: cell-based, human; conditions: protein transfected in placental 1584-HF cells
From the text: (§1) Transfection of purified recombinant wild-type or various mutant hnRNP-E1 proteins into cells was achieved using the Xfect™ Protein Transfection Kit (Clontech, Mountain View, Calif.). Briefly, placental 1584-HF cells in 10-cm dishes at 70-80% confluence were transfected with 2.4-mL serum-free medium and Xfect Protein Transfection Reagent (1.2-mL) containing 20-μg of either wild-type hnRNP-E1-, or highest-affinity (HA)-hnRNP-E1(C293S)-mutant, or wild-type-like hnRNP-E1 (G292A)-mutant proteins and 2-μg of ß-galactosidase at 37° C. for 60-min. After cysteine-starvation for 4-h, an aliquot of cells were assessed for ß-galactosidase activity (to measure the efficiency of co-transfection of ß-galactosidase) and the remaining cells were pulsed with L-[^35S]cysteine (250-μCi) and assessed for specific [^35S]cysteine incorporated into folate receptor to determine the biosynthetic rate of this protein. A similar protocol was employed for analysis of newly synthesized [^35S]hnRNP-E1 using anti-hnRNP-E1 antiserum-coupled agarose and control agarose in order to derive values for specific [^35S]cysteine incorporated into hnRNP-E1 and thereby determine the biosynthetic rate of this protein.

[2] = target: [^35S]18-nt folate receptor-α mRNA cis-element; experiment: Dissociation constant (KD) of GST-hnRNP-E1 or its mutant proteins for the 18-nt folate receptor-α mRNA cis-element; format: binding, human; conditions: L-Homocysteine 0 μM; listed as (HA)-hnRNP-E1(C293 S)-mutant
Method: (§2) Methods for testing the ability of an engineered hnRNP-E1 variant polypeptide to bind to an RNA comprising the sequence of SEQ ID NO:6 are known in the art. Such methods include, but are not limited to, RNA electrophoretic mobility shift assays, as exemplified herein, RNA pull-down assays, and oligonucleotide-targeted RNase H protection assays. Such assays are conducted in the presence or absence of homocysteine to determine the RNA-binding dependence of any particular hnRNP-E1 polypeptide tested on the presence of homocysteine. […] Additional methods are outline in Tang et al. (“Incrimination of heterogeneous nuclear ribonucleoprotein E1 (hnRNP-E1) as a candidate sensor of physiological folate deficiency.” J Biol Chem. 2011; 286(45):39100-39115), which is incorporated herein in its entirety.
(§3) Specific binding was determined by subtracting values of non-specific binding with GST from those of total binding with GST-hnRNP-E1; (however, in Table 1 and FIG. 6G, non-specific binding using bovine serum albumin (BSA) was subtracted from total binding to GST-hnRNP-E1 to determine specific binding). The KD was calculated from a Scatchard plot using GraphPad Prism 6 from GraphPad Software (San Diego, Calif.), as previously described in the art.

hnRNP-E1 mRNA = experiment: In vitro translation of hnRNP-E1; format: biochemical, human; conditions: protein added after neutralizing ß-ME by N-ethylmaleimide
Method: (§4) In vitro transcription-translation was carried out using the Linked SP6/T7 In Vitro Transcription/Translation Kit (Roche Applied Science) after addition of one of various targeted DNAs—pSPT18-25-hnRNP-E1 DNA, or Pst1-linearized plasmid pSPT18-folate receptor-α, or HPV16 L2 DNA, (0.5 μg/reaction)—to the transcription mix as described. In other experiments, the capacity for perturbing the interaction of hnRNP-E1 with the 25-nt hnRNP-E1 cis-element during in vitro translation was assessed in the presence of either scrambled oligonucleotides (5′-[…]-3′ SEQ ID NO:20) or specific antisense oligonucleotides (5′-[…]-3′ SEQ ID NO:21) generated against the 25-nt hnRNP-E1 mRNA cis-element (GenScript USA, Piscataway, N.J.).

[3] = tested on: HPV16 L2 mRNA cis-element; experiment: Gel-shift assay of hnRNP-E1 proteins with HPV16 L2 mRNA; format: binding, Human Papillomavirus type 16; conditions: absence of reducing agents; versus wild-type and G292A
Method: (§5) Parenthetically, there was no significant difference in RNA binding to GST-hnRNP-E1 by use of either 32P-RNA probes or 35S-labeled RNA probes used. Other studies assessed the effect of iron(II) or iron(III) on homocysteine-induced RNA-protein interactions.
(§6) Construction of plasmids for generation of HPV16 L2 RNA, gel-shift and in vitro translation studies were carried as described with additional treatments shown in FIGS. 10A-10D

[4] = target: [^35S]25-nt hnRNP-E1 mRNA cis-element; experiment: Dissociation constant (KD) of GST-hnRNP-E1 or its mutant proteins for the 25-nt hnRNP-E1 mRNA cis-element; format: binding, human; conditions: L-Homocysteine 0 μM
Method: as §2, §3

HPV16 L2 RNA = experiment: In vitro translation of HPV16 L2 protein; format: biochemical, Human Papillomavirus type 16; conditions: after quenching excess ß-ME by NEM (2 mM)
Method: as §4, §6

[5] = tested on: 18-nt folate receptor-α mRNA cis-element; experiment: Gel-shift assay of hnRNP-E1 proteins with 18-nt folate receptor-α mRNA cis-element; format: binding, human; conditions: absence of homocysteine or other reducing agent
Method: as §5
(§7) Recombinant GST-plasmid DNA, pGST-hnRNP-E1, pGST-hnRNP-E2, and related engineered variant plasmids were transformed into BL21 Escherichia coli from Novagen (Madison, Wis.). After induction by 1 mM isopropyl-1-thio-ß-D-galactopyranoside, the GST-hnRNP-E1 and engineered variant fusion proteins were individually purified using the B-PER GST Fusion Protein Purification Kit (Pierce, Rockford, Ill.). The eluted GST fusion proteins were dialyzed against 500 volumes of buffer to remove excess reducing reagents (such as dithiothreitol (DTT)) and assayed by SDS-PAGE and Western blots using anti-peptide hnRNP-E1 antiserum. Gel shift assays with target RNA were carried out as described.

[6] = tested on: 25-nt hnRNP-E1 mRNA cis-element; experiment: Gel-shift assay of hnRNP-E1 proteins with 25-nt hnRNP-E1 mRNA cis-element; format: binding, human; conditions: absence of L-homocysteine
Method: as §5, §7

folate receptor-α mRNA = experiment: In vitro translation of folate receptor-α; format: biochemical, human; conditions: presence of 2-mM NEM
Method: In vitro transcription-translation was carried out using the Linked SP6/T7 In Vitro Transcription/Translation Kit (Roche Applied Science) after addition of one of various targeted DNAs—pSPT18-25-hnRNP-E1 DNA, or Pst1-linearized plasmid pSPT18-folate receptor-α, or HPV16 L2 DNA, (0.5 μg/reaction)—to the transcription mix as described. In other experiments, the capacity for perturbing the interaction of hnRNP-E1 with the 25-nt hnRNP-E1 cis-element during in vitro translation was assessed in the presence of either scrambled oligonucleotides (5′-GCGTCGCTCGCTTCGCACGTGCGCC-3′ SEQ ID NO:20) or specific antisense oligonucleotides (5′-GGG AGC GAG CGG GCG GGA G-3′ SEQ ID NO:21) generated against the 25-nt hnRNP-E1 mRNA cis-element (GenScript USA, Piscataway, N.J.).

[7] = tested on: 18-nt folate receptor-α mRNA cis-element-linked CAT reporter; experiment: CAT reporter driven by 18-nt folate receptor-α mRNA cis-element, co-transfected with hnRNP-E1 plasmids in HeLa-IU1-HF cells; format: cell-based, human; conditions: pSV-β-gal normalization
Method: A plasmid containing CAT reporter DNA driven by an 18-nucleotide folate receptor-α mRNA cis-element, was constructed as previously described. Briefly, HeLa-IU1-HF cells were grown to 70-80% confluence and then co-transfected with CAT reporter DNA driven by an 18-nucleotide folate receptor-α mRNA cis-element and various construct combinations of either wild-type and mutant hnRNP-E1 plasmids using X-tremeGENE DNA transfection reagent (Roche Applied Science). The transfection reactions were set up with 6-μg DNA and 12-μL XtremeGENE DNA transfection reagent for each well. In these transfection experiments, pSV-ß-gal was used as an internal control to monitor the efficiency of transfection of cells. After 48 h cells were harvested for protein determination using the BCA protein assay (Pierce); ß-galactosidase activity by the ß-galactosidase chemiluminescent assay (Roche Diagnostics); and CAT activity using a CAT ELISA kit (Roche Diagnostics). All experiments were carried out 4 times with 3 replications per treatment. The data from non-transfected cells was used as a background and subtracted from that obtained with transfected cells. All data were normalized using the internal standard and protein concentration for each treatment.

[8] = tested on: newly synthesized [^35S]folate receptors in placental 1584-HF cells; experiment: Biosynthetic rate of folate receptors after protein transfection into placental 1584-HF cells; format: cell-based, human; conditions: protein transfected in placental 1584-HF cells
From the text: as §1

[9] = listed as (HA)-hnRNP-E1(C293S)-mutant

Q: For “GST-hnRNP-E1(C293S): highest-affinity mutant, cysteine-293 to serine in the KH3 domain of hnRNP-E1 (SEQ ID NO:2)”, which “[^35S]cysteine-hnRNP-E1” value [1] is on record?
A: Its value is 6.70 ± 1.74 c fmol/mg protein/h.

Q: And the “increase in the rate of biosynthesis of [^35S]hnRNP-E1” value [1]?
A: Its value is “over 6 fold”.

Q: And the “[^35S]cysteine-hnRNP-E1” value [1, 9]?
A: Its value is 6.70 fmol/mg protein/h.

Q: What about the Kd [2] of the same substance?
A: The Kd was 270 pM and 200 pM.

Q: And the “translation of hnRNP-E1 in vitro” value (hnRNP-E1 mRNA)?
A: Its value is “markedly stimulated translation of hnRNP-E1 in vitro”.

Q: What about the “interaction with HPV16 L2 mRNA on gel-shift assays” value [3] of the same substance?
A: The value was “greater interaction”.

Q: What about the Kd [4] of the same substance?
A: The Kd was 390 pM.

Q: What about the “HPV16 L2 protein signal” value (HPV16 L2 RNA) of the same substance?
A: Its value is “progressive reduction in signal”.

Q: What about the RNA-protein signal [5] of the same substance?
A: Its RNA-protein signal is “strongest RNA-protein signal”.

Q: What about the RNA-protein gel-shift signal [6] of the same substance?
A: The RNA-protein gel-shift signal was “strong signal”.

Q: And the “translation of folate receptor-α” value (folate receptor-α mRNA)?
A: Its value is “maximally increased”.

Q: And the “folate receptor-α cis-element-linked CAT activity versus wild-type hnRNP-E1 or G292A control” value [7]?
A: Its value is “two and one-half times stronger”.

Q: And the “[^35S]cysteine-folate receptor” value [8]?
A: The value was 6.62 ± 0.74 c fmol/mg protein/h.

Q: What about the “[^35S]cysteine-folate receptor” value [8, 9] of the same substance?
A: The value was 6.62 fmol/mg protein/h.

Q: And the “increase of [^35S]folate receptors over controls” value ([8]; over wild-type and G292A controls)?
A: Its value is ~4 fold.
